{"source": "patent US20040029965A1", "about": "“Formulations for reducing or eliminating toxicity of enviromental hormones containing ursodeoxycholic acid” (priority 2000, published 2004)", "format_in_all_cases": "in vivo", "key": {"C57B1/6J mice [1]": {"test_system": "C57B1/6J mice", "assay": "Blood (serum) biochemical changes in mice by a single subcutaneous injection of TCDD", "description": "(§1) Male C57B1/6J mice of 5 weeks old having the average weight of 18-22 g which had been bred in CRJ (Charles River in Japan) were purchased and used in this example as experimental animals. Those mice were acclimated under the constant breeding condition, i.e. the temperature of 24±1° C., the humidity of 60±10% and the light and darkness cycle of 12 hours, for one week and thereafter, utilized in the experiment.\n(§2) 2,3,7,8-tetrachlorodibenzo-p-dioxin (TCDD) dissolved in toluene (purity of 95% or more as a result of gas chromatography analysis), manufactured by Chem. Services Inc. in USA, was volatilized with nitrogen to obtain powder. The obtained powder was dissolved in a mixed solvent containing acetone and corn oil with a volume ratio of 1:6. The resulting solution each containing 110, 27.5 and 6.9 μg/kg of TCDD was subcutaneously injected to mice at a volume of 5 ml per body weight. […] The mice were supplied with the feed from 10 days before (pre-administration) to 60 days after administration of TCDD (post-administration).\n(§3) Upon completion of the experiment for 60 days, the experimental animals were fasted for 24 hours and anesthetized with ether. Then, they were abdominally incised and blood was gathered from abdominal vena cava. They were sacrificed by the release of blood. Liver, kidneys, testes and epididymides were extracted and all the extracted organs were weighed. Only the testes were separately kept and observed under optical and electron microscopes. For biochemical finding test, serum was separated from blood with a centrifuge and the separated serum was analyzed with an automated blood biochemical analyzer, Dimension (Dupont, USA). Blood was put to another blood gathering bottle and then, analyzed with an automated blood cell analyzer, Celldyn (Abbott, USA).\n(§4) The results are expressed as Mean±Standard Deviation values. For statistical analysis of the body weight, feed and water uptake, biochemical findings, hematological findings and the weight of organ in an acute toxicity test, verification was performed by one way analysis of variance (ANOVA) in case of equal distribution. In case significance was recognized in ANOVA, the Student's t-test was performed in the levels of p<0.05 and p<0.01.\nFor biochemical findings in the serum, the levels of glucose (GLU), GOT, GPT, Triglyceride (TG), high density lipoprotein (HDL-C), low density lipoprotein (LDL-C) and alkaline phosphatase (ALP) in serum were measured and the results are shown in the following."}, "C57B1/6J mice [2]": {"test_system": "C57B1/6J mice", "assay": "Effect of UDCA on death (death rate, death time) of mice by a single subcutaneous injection of TCDD", "description": "as §1\nThe Experimental animals were supplied with Purina powdered feed (purchased from Hae Eun Trade) and supplied with water ad libitum. All the animals were weighed twice a week during experimentation.\nas §2, §4"}, "C57B1/6J mice [3]": {"test_system": "C57B1/6J mice", "assay": "Hematological changes in mice by a single subcutaneous injection of TCDD", "design": "NEU / LYM / PLT: unit not given here", "description": "as §1, §2, §3, §4\nFor hematological findings, white blood cell (WBC), neutrophil (NEU), lymphocyte (LYM), monocyte (MONO), eosinophil (EOS), basophil (BASO) and red blood cell (RBC) counts, and hemoglobin concentration (HGB), hematocrit (HCT), mean cell volume (MCV), mean corpuscular hemoglobin (MCH), mean corpuscular hemoglobin concentration (MCHC), red blood cell distribution width (RDW) and platelet count (PLT) were measured and the results are as follows."}}, "note": "Marks after values point to notes of the source that are not given here."}
{"compound": "Clc1cc2c(cc1Cl)Oc1cc(Cl)c(Cl)cc1O2", "note": "[TCDD, 2,3,7,8-tetrachlorodibenzo-p-dioxin]", "values": [{"measurement": "ALP", "setting": "C57B1/6J mice [1]; TCDD 6.9 μg/kg alone", "value": "69.67 ± 8.80", "unit": "IU/l"}, {"measurement": "GLU", "setting": "C57B1/6J mice [1]; TCDD 6.9 μg/kg alone", "value": "96.00 ± 15.15", "unit": "mg/dL"}, {"measurement": "GOT", "setting": "C57B1/6J mice [1]; TCDD 6.9 μg/kg alone", "value": "55.16 ± 6.65", "unit": "IU/l"}, {"measurement": "GPT", "setting": "C57B1/6J mice [1]; TCDD 6.9 μg/kg alone", "value": "21.66 ± 5.39", "unit": "IU/l"}, {"measurement": "HDL-C", "setting": "C57B1/6J mice [1]; TCDD 6.9 μg/kg alone", "value": "39.29 ± 9.38", "unit": "mg/dL"}, {"measurement": "LDL-C", "setting": "C57B1/6J mice [1]; TCDD 6.9 μg/kg alone", "value": "24.43 ± 11.81", "unit": "mg/dL"}, {"measurement": "TG", "setting": "C57B1/6J mice [1]; TCDD 6.9 μg/kg alone", "value": "76.14 ± 14.03", "unit": "mg/dL"}, {"measurement": "ALP", "setting": "C57B1/6J mice [1]; TCDD 27.5 μg/kg alone", "value": "65.4 ± 19.05", "unit": "IU/l"}, {"measurement": "GLU", "setting": "C57B1/6J mice [1]; TCDD 27.5 μg/kg alone", "value": "28.20 ± 8.23", "unit": "mg/dL"}, {"measurement": "GOT", "setting": "C57B1/6J mice [1]; TCDD 27.5 μg/kg alone", "value": "230.40 ± 72.90", "unit": "IU/l"}, {"measurement": "GPT", "setting": "C57B1/6J mice [1]; TCDD 27.5 μg/kg alone", "value": "70.4 ± 23.46", "unit": "IU/l"}, {"measurement": "HDL-C", "setting": "C57B1/6J mice [1]; TCDD 27.5 μg/kg alone", "value": "21.80 ± 6.76", "unit": "mg/dL"}, {"measurement": "LDL-C", "setting": "C57B1/6J mice [1]; TCDD 27.5 μg/kg alone", "value": "43.80 ± 14.99", "unit": "mg/dL"}, {"measurement": "TG", "setting": "C57B1/6J mice [1]; TCDD 27.5 μg/kg alone", "value": "92.67 ± 16.79", "unit": "mg/dL"}, {"measurement": "Death rate", "setting": "C57B1/6J mice [2]; TCDD 6.9 μg/kg alone", "value": 0, "unit": "%"}, {"measurement": "No. of dead mice/No. of administered mice", "setting": "C57B1/6J mice [2]; TCDD 6.9 μg/kg alone", "value": "0/10"}, {"measurement": "Death rate", "setting": "C57B1/6J mice [2]; TCDD 27.5 μg/kg alone", "value": 30, "unit": "%"}, {"measurement": "Death time (Mean ± SD)", "setting": "C57B1/6J mice [2]; TCDD 27.5 μg/kg alone", "value": "55 ± 5", "unit": "days"}, {"measurement": "No. of dead mice/No. of administered mice", "setting": "C57B1/6J mice [2]; TCDD 27.5 μg/kg alone", "value": "3/10"}, {"measurement": "Death time (Mean ± SD)", "setting": "C57B1/6J mice [2]; TCDD 110.0 μg/kg alone", "value": "35 ± 7", "unit": "days"}, {"measurement": "No. of dead mice/No. of administered mice", "setting": "C57B1/6J mice [2]; TCDD 110.0 μg/kg alone", "value": "10/10"}, {"measurement": "BASO", "setting": "C57B1/6J mice [3]; TCDD 6.9 μg/kg alone", "value": "0.21 ± 0.12 10^3"}, {"measurement": "EOS", "setting": "C57B1/6J mice [3]; TCDD 6.9 μg/kg alone", "value": "0.01 ± 0.01 10^3"}, {"measurement": "HCT", "setting": "C57B1/6J mice [3]; TCDD 6.9 μg/kg alone", "value": "43.12 ± 5.04", "unit": "%"}, {"measurement": "HGB", "setting": "C57B1/6J mice [3]; TCDD 6.9 μg/kg alone", "value": "13.65 ± 1.34", "unit": "g/dL"}, {"measurement": "LYM", "setting": "C57B1/6J mice [3]; TCDD 6.9 μg/kg alone", "value": "4.27 ± 2.05 10^3"}, {"measurement": "MCH", "setting": "C57B1/6J mice [3]; TCDD 6.9 μg/kg alone", "value": "14.70 ± 0.41", "unit": "pg"}, {"measurement": "MCHC", "setting": "C57B1/6J mice [3]; TCDD 6.9 μg/kg alone", "value": "31.76 ± 0.70", "unit": "g/dL"}, {"measurement": "MCV", "setting": "C57B1/6J mice [3]; TCDD 6.9 μg/kg alone", "value": "46.33 ± 1.97", "unit": "fL"}, {"measurement": "MONO", "setting": "C57B1/6J mice [3]; TCDD 6.9 μg/kg alone", "value": "0.10 ± 0.07 10^3"}, {"measurement": "NEU", "setting": "C57B1/6J mice [3]; TCDD 6.9 μg/kg alone", "value": "0.40 ± 0.24 10^3"}, {"measurement": "PLT", "setting": "C57B1/6J mice [3]; TCDD 6.9 μg/kg alone", "value": "1140.88 ± 133.39 10^3"}, {"measurement": "RBC", "setting": "C57B1/6J mice [3]; TCDD 6.9 μg/kg alone", "value": "9.29 ± 0.85 10^6"}, {"measurement": "RDW", "setting": "C57B1/6J mice [3]; TCDD 6.9 μg/kg alone", "value": "20.38 ± 1.21", "unit": "%"}, {"measurement": "WBC", "setting": "C57B1/6J mice [3]; TCDD 6.9 μg/kg alone", "value": "5.94 ± 1.85 10^3"}, {"measurement": "BASO", "setting": "C57B1/6J mice [3]; TCDD 27.5 μg/kg alone", "value": "0.17 ± 0.07 10^3"}, {"measurement": "EOS", "setting": "C57B1/6J mice [3]; TCDD 27.5 μg/kg alone", "value": "0.018 ± 0.028 10^3"}, {"measurement": "HCT", "setting": "C57B1/6J mice [3]; TCDD 27.5 μg/kg alone", "value": "39.12 ± 3.25", "unit": "%"}, {"measurement": "HGB", "setting": "C57B1/6J mice [3]; TCDD 27.5 μg/kg alone", "value": "12.90 ± 1.00", "unit": "g/dL"}, {"measurement": "LYM", "setting": "C57B1/6J mice [3]; TCDD 27.5 μg/kg alone", "value": "1.43 ± 0.60** 10^3"}, {"measurement": "MCH", "setting": "C57B1/6J mice [3]; TCDD 27.5 μg/kg alone", "value": "14.17 ± 0.40", "unit": "pg"}, {"measurement": "MCHC", "setting": "C57B1/6J mice [3]; TCDD 27.5 μg/kg alone", "value": "33.02 ± 0.86", "unit": "g/dL"}, {"measurement": "MCV", "setting": "C57B1/6J mice [3]; TCDD 27.5 μg/kg alone", "value": "42.97 ± 0.56", "unit": "fL"}, {"measurement": "MONO", "setting": "C57B1/6J mice [3]; TCDD 27.5 μg/kg alone", "value": "0.07 ± 0.04 10^3"}, {"measurement": "NEU", "setting": "C57B1/6J mice [3]; TCDD 27.5 μg/kg alone", "value": "2.58 ± 0.97** 10^3"}, {"measurement": "PLT", "setting": "C57B1/6J mice [3]; TCDD 27.5 μg/kg alone", "value": "1473.17 ± 110.35** 10^3"}, {"measurement": "RBC", "setting": "C57B1/6J mice [3]; TCDD 27.5 μg/kg alone", "value": "9.10 ± 0.71 10^6"}, {"measurement": "RDW", "setting": "C57B1/6J mice [3]; TCDD 27.5 μg/kg alone", "value": "20.97 ± 2.27", "unit": "%"}, {"measurement": "WBC", "setting": "C57B1/6J mice [3]; TCDD 27.5 μg/kg alone", "value": "4.29 ± 1.05 10^3"}]}
